Laboratory results from ChEMBL document CHEMBL5385861, “Development of novel hydrazidoarylaminopyrimidine-based BTK/FLT3 dual inhibitors with potent in vivo anti-hematological malignancies effects” (Eur J Med Chem, 2023).

Key:
[1] = molecular target: Serine-protein kinase ATM (Homo sapiens) (UniProt Q13315); test: Inhibition of ATM (unknown origin) at 0.2 uM incubated for 40 mins by radiometric kinase assay relative to control
[2] = molecular target: Calcium/calmodulin-dependent protein kinase kinase 2 (Homo sapiens) (UniProt Q96RR4); test: Inhibition of CaMKK2 (unknown origin) at 0.2 uM incubated for 40 mins by radiometric kinase assay relative to control
Sequence of Calcium/calmodulin-dependent protein kinase kinase 2 (Homo sapiens) (Q96RR4 2-588 limits assumed): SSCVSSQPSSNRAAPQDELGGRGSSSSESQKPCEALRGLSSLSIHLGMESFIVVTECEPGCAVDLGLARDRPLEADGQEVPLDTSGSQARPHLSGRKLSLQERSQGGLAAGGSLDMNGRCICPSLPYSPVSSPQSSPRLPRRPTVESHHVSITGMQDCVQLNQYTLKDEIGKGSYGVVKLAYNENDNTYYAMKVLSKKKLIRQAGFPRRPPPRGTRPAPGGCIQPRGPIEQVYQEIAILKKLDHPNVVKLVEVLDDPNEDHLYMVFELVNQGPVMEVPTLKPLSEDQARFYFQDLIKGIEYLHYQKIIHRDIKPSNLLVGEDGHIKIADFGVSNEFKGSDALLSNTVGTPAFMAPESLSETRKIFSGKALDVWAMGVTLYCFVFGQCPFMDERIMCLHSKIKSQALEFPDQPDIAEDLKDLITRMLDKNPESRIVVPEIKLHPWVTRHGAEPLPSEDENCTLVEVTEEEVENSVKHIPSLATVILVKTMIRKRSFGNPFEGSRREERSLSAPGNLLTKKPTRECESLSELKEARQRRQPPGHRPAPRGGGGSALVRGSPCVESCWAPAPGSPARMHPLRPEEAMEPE

[3] = molecular target: CDK6/cyclin D3 (Homo sapiens) (UniProt P30281+Q00534); test: Inhibition of CDK6/cyclinD3 (unknown origin) at 0.2 uM incubated for 40 mins by radiometric kinase assay relative to control; assay type: protein-complex assay
[4] = molecular target: Death-associated protein kinase 1 (Homo sapiens) (UniProt P53355); test: Inhibition of DAPK1 (unknown origin) at 0.2 uM incubated for 40 mins by radiometric kinase assay relative to control
[5] = molecular target: Vascular endothelial growth factor receptor 3 (Homo sapiens) (UniProt P35916); test: Inhibition of FLT4 (unknown origin) at 0.2 uM incubated for 40 mins by radiometric kinase assay relative to control
Sequence of Vascular endothelial growth factor receptor 3 (Homo sapiens) (P35916 whole entry): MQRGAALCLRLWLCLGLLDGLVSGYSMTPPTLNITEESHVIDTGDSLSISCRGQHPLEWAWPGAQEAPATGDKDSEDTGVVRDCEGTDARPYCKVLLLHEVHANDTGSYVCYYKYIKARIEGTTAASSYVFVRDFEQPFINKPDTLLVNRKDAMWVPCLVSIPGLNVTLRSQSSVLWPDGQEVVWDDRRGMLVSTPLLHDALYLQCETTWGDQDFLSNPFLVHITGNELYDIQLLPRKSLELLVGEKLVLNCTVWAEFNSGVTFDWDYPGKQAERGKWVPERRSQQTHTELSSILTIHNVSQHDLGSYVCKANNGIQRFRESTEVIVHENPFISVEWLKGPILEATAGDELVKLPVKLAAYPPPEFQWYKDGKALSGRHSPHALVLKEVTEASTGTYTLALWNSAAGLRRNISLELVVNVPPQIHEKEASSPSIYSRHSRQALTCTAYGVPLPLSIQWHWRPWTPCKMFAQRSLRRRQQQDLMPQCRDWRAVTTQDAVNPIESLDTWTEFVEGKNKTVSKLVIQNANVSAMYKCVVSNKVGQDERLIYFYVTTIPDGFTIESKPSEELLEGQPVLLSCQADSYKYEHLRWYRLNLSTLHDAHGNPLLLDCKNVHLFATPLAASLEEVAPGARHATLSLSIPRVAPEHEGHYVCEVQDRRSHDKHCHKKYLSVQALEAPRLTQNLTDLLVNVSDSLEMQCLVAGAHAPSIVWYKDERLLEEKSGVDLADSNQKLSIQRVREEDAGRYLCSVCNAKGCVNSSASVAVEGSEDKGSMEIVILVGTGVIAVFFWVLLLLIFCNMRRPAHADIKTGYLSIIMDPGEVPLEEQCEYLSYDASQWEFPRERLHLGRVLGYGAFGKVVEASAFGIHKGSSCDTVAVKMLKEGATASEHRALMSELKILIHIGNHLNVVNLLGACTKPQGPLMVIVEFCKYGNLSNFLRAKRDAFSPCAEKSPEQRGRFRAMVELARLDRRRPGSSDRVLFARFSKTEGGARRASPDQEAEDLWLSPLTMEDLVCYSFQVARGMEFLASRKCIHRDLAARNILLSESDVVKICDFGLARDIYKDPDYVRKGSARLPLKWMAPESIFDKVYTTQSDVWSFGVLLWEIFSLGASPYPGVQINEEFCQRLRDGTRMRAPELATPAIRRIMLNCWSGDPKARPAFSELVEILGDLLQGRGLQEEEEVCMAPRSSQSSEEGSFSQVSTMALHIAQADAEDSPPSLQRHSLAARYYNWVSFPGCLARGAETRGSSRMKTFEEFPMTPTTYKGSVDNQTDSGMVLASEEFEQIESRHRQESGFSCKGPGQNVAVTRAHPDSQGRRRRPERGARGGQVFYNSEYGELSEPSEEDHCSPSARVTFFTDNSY

[6] = molecular target: Macrophage colony-stimulating factor 1 receptor (Homo sapiens) (UniProt P07333); test: Inhibition of Fms (unknown origin) at 0.2 uM incubated for 40 mins by radiometric kinase assay relative to control
Sequence of Macrophage colony-stimulating factor 1 receptor (Homo sapiens) (P07333 whole entry): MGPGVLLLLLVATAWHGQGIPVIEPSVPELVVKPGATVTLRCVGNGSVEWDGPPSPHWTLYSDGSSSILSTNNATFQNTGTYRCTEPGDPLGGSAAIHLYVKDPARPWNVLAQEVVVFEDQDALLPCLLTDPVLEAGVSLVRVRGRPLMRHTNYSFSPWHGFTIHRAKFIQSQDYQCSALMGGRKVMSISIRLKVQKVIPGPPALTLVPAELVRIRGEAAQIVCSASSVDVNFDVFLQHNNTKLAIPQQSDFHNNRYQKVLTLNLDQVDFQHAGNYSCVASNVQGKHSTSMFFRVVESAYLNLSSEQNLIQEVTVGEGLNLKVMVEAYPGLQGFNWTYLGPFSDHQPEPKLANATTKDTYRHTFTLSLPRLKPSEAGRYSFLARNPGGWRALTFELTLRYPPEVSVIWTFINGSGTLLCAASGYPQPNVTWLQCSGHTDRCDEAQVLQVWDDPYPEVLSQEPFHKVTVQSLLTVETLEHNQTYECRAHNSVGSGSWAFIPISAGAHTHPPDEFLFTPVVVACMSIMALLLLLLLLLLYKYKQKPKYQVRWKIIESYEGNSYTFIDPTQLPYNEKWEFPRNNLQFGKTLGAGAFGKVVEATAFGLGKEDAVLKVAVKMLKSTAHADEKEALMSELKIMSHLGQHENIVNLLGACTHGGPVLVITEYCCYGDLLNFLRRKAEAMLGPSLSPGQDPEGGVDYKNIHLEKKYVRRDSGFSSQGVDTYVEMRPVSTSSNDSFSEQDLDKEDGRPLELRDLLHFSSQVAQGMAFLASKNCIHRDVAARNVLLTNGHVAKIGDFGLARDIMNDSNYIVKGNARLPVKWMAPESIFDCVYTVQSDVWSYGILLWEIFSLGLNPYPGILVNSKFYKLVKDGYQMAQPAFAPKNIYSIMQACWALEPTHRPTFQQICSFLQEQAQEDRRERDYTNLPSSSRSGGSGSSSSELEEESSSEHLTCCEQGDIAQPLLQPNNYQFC

[7] = molecular target: Inhibitor of nuclear factor kappa-B kinase subunit alpha (Homo sapiens) (UniProt O15111); test: Inhibition of IKKalpha (unknown origin) at 0.2 uM incubated for 40 mins by radiometric kinase assay relative to control
[8] = molecular target: Inhibitor of nuclear factor kappa-B kinase subunit beta (Homo sapiens) (UniProt O14920); test: Inhibition of IKKbeta (unknown origin) at 0.2 uM incubated for 40 mins by radiometric kinase assay relative to control
Sequence of Inhibitor of nuclear factor kappa-B kinase subunit beta (Homo sapiens) (O14920 whole entry): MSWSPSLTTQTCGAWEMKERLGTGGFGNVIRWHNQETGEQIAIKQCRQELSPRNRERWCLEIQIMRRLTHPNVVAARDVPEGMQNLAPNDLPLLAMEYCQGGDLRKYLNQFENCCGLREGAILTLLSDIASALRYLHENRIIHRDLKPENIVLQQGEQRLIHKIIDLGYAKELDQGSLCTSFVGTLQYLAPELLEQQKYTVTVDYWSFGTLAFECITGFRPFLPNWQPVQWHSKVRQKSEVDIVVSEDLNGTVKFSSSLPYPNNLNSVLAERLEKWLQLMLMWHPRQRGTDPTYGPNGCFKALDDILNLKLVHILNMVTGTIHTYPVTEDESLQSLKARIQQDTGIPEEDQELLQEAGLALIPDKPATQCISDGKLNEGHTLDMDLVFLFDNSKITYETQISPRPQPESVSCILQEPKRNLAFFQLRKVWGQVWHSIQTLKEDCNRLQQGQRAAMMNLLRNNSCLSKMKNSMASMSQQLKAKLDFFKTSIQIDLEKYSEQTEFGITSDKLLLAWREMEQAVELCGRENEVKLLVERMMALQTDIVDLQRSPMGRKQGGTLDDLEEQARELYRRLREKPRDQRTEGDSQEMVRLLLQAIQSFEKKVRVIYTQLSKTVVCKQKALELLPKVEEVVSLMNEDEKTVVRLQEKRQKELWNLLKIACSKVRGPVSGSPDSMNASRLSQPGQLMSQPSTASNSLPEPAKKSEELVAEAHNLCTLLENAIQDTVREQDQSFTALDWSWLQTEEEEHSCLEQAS

[9] = molecular target: Mitogen-activated protein kinase 9 (Homo sapiens) (UniProt P45984); test: Inhibition of JNK2alpha2 (unknown origin) at 0.2 uM incubated for 40 mins by radiometric kinase assay relative to control
[10] = molecular target: Dual specificity mitogen-activated protein kinase kinase 1 (Homo sapiens) (UniProt Q02750); test: Inhibition of MEK1 (unknown origin) at 0.2 uM incubated for 40 mins by radiometric kinase assay relative to control
Sequence of Dual specificity mitogen-activated protein kinase kinase 1 (Homo sapiens) (Q02750 whole entry): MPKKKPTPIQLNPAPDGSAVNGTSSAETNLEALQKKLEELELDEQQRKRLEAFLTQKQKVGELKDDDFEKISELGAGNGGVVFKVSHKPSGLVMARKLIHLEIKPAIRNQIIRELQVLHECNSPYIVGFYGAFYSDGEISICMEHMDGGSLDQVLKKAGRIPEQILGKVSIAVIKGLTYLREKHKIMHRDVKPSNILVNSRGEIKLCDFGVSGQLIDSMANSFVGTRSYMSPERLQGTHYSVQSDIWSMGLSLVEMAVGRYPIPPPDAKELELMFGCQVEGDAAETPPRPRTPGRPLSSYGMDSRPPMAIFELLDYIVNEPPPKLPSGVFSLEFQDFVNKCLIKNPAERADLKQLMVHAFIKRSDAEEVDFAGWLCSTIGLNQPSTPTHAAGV

[11] = molecular target: PI3-kinase p110-alpha/p85-alpha (Homo sapiens) (UniProt P27986+P42336); test: Inhibition of PI3 Kinase p110a/p85a (unknown origin) at 0.2 uM incubated for 40 mins by radiometric kinase assay relative to control; assay type: protein-complex assay
[12] = molecular target: Mitogen-activated protein kinase kinase kinase 7 (Homo sapiens) (UniProt O43318); test: Inhibition of TAK1 (unknown origin) at 0.2 uM incubated for 40 mins by radiometric kinase assay relative to control
[13] = molecular target: Death-associated protein kinase 3 (Homo sapiens) (UniProt O43293); test: Inhibition of ZIPK (unknown origin) at 0.2 uM incubated for 40 mins by radiometric kinase assay relative to control
JeKo-1 [14] = test: Potency index, ratio of spebrutinib IC50 to test compound IC50 for antiproliferative activity against human JeKo-1 cells; assay type: functional
MOLT-4 [15] = test: Potency index, ratio of spebrutinib IC50 to test compound IC50 for antiproliferative activity against human MOLT-4 cells; assay type: functional
K562 = test: Potency index, ratio of ibrutinib IC50 to test compound IC50 for antiproliferative activity against human K562 cells; assay type: functional
JeKo-1 [16] = test: Potency index, ratio of sorafenib IC50 to test compound IC50 for antiproliferative activity against human JeKo-1 cells; assay type: functional
[17] = molecular target: Tyrosine-protein kinase BTK (Homo sapiens, UniProt Q06187); test: Inhibition of BTK phosphorylation in human JeKo-1 cells incubated for 72 hrs by Western blot analysis; assay type: cell-based; settings: dose 30-750 nM
Sequence of Tyrosine-protein kinase BTK (Q06187 whole entry): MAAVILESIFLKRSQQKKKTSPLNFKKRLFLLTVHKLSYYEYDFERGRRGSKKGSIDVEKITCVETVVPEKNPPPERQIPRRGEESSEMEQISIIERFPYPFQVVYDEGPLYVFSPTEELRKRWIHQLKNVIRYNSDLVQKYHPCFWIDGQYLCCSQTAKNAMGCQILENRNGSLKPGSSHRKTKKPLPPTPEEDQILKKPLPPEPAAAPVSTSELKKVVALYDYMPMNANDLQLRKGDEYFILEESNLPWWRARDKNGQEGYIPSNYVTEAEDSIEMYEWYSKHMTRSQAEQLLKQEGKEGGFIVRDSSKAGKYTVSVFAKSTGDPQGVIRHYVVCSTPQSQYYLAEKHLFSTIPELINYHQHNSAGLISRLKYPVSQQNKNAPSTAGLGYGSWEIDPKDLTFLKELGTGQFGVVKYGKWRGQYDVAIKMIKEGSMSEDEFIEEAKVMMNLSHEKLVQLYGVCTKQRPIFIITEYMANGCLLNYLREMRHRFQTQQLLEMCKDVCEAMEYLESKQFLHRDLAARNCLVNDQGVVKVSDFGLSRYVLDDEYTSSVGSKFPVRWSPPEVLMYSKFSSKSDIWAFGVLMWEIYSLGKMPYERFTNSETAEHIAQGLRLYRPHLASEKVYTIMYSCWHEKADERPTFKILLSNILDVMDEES

[18] = molecular target: Signal transducer and activator of transcription 5A (Homo sapiens) (UniProt P42229); test: Inhibition of STAT5 phosphorylation in human JeKo-1 cells incubated for 72 hrs by Western blot analysis; assay type: cell-based; settings: dose 30-750 nM
JeKo-1 [19] = test: Induction of apoptosis in human JeKo-1 cells assessed as viable cells at 30 nM incubated for 72 hrs by Annexin VFITC/PI staining based flow cytometry analysis (reference value: 94.81%); assay type: functional; settings: read-out: Activity
JeKo-1 [20] = test: Induction of apoptosis in human JeKo-1 cells assessed as early apoptotic cells at 30 nM incubated for 72 hrs by Annexin VFITC/PI staining based flow cytometry analysis (reference value: 3.10%); assay type: functional
JeKo-1 [21] = test: Induction of apoptosis in human JeKo-1 cells assessed as viable cells at 150 nM incubated for 72 hrs by Annexin VFITC/PI staining based flow cytometry analysis (reference value: 94.81%); assay type: functional; settings: read-out: Activity
JeKo-1 [22] = test: Induction of apoptosis in human JeKo-1 cells assessed as late apoptotic cells at 150 nM incubated for 72 hrs by Annexin VFITC/PI staining based flow cytometry analysis (reference value: 1.42%); assay type: functional
JeKo-1 [23] = test: Induction of apoptosis in human JeKo-1 cells assessed as upregulation of cleaved caspase-3 protein expression incubated for 72 hrs by Western blot analysis; assay type: functional, cell-based; settings: dose 30-750 nM
[24] = Acute toxicity in ICR mouse assessed as animal survival at 468.8 mg/kg, ip measured for 2 weeks; assay type: organism-based; settings: in vivo
[25] = Acute toxicity in ip dosed ICR mouse assessed as change in routine blood analysis at 200 mg/kg, ip measured for 2 weeks; assay type: organism-based; settings: in vivo, 336 h
JeKo-1 [26] = test: Antitumor activity against human JeKo-1 cells xenografted in ip dosed NOD/SCID mouse assessed as suppression of tumor growth measured for 16 days; assay type: functional, organism-based; settings: dose 25-50 mg/kg, time 16.0 day
JeKo-1 [27] = test: Antitumor activity against human JeKo-1 cells xenografted NOD/SCID mouse assessed as tumor growth inhibition at 25 mg/kg, ip measured for 16 days; assay type: functional; settings: JeKo-1, 384 h, time 16 day, read-out: TGI
[28] = Toxicity in NOD/SCID mouse xenografted with human JeKo-1 cells assessed as drinking abnormalities at 25 to 50 mg/kg, ip measured for 16 days; assay type: organism-based; settings: in vivo, 384 h, dose 25-50 mg/kg, time 16 day
JeKo-1 [29] = test: Antitumor activity against human JeKo-1 cells xenografted NOD/SCID mouse assessed as reduction in tumor weight at 25 mg/kg, ip measured for 16 days; assay type: functional; settings: time 16 day
MV4-11 = test: Antitumor activity against human MV4-11 cells xenografted in NOD/SCID mouse assessed as tumor growth inhibition at 20 mg/kg ip administered once daily for 21 days; assay type: functional; settings: MV4-11, 504 h, time 21 day, read-out: TGI
JeKo-1 [30] = test: cells; settings: Homo sapiens, JeKo-1, 72 h
Description: Antiproliferative activity against human JeKo-1 cells assessed as inhibition of cell growth incubated for 72 hrs by CCK8 assay

MOLT-4 [31] = test: cells; settings: Homo sapiens, MOLT-4, 72 h
Description: Antiproliferative activity against human MOLT-4 cells assessed as inhibition of cell growth incubated for 72 hrs by CCK8 assay

in vitro = settings: human, Caco-2
Description: Apparent permeability across basolateral to apical side in human Caco-2 cells incubated for 120 mins by LC-MS/MS analysis

[32] = system: Tyrosine-protein kinase Tec; test: Inhibition of TEC (unknown origin) at 0.2 uM incubated for 40 mins by radiometric kinase assay relative to control; settings: Homo sapiens

In the case of `CN1CCN(c2ccc(Nc3ncc(F)c(Nc4ccccc4C(=O)NN)n3)cc2)CC1`, the inhibition [1] is reported as -6%, the inhibition [2] is reported as 27% and the inhibition [3] is reported as 23%. For the same molecule, the inhibition [4] was -1%, the inhibition [5] was 100% and the inhibition [6] was 67%. For the same molecule, the inhibition [7] was 17%, the inhibition [8] was 15% and the inhibition [9] was 11%. The inhibition [10] was -3%, the inhibition [11] was 13% and the inhibition [12] was 26%. The inhibition [13] was 26%, the “Ratio IC50” value (JeKo-1 [14]) was 8 and the “Ratio IC50” value (MOLT-4 [15]) was 8. For the same molecule, the “Ratio IC50” value (K562) was 6, the “Ratio IC50” value (JeKo-1 [16]) was 1.3 and the inhibition [17] was “Dose-Dependent Effect”. For the same molecule, the inhibition [18] was “Dose-Dependent Effect”, the viability at 0.03 µM (JeKo-1 [19]) was 87.5% and the Activity (JeKo-1 [20]) was 12.08%. The viability at 0.15 µM (JeKo-1 [21]) was 72.4%, the Activity (JeKo-1 [22]) was 1.65% and the Activity (JeKo-1 [23]) was “Dose-Dependent Effect”. The survival at 336 h [24] was 10%, the Activity [25] was “Non-Toxic” and the Activity (JeKo-1 [26]) was “Dose-Dependent Effect”. For the same molecule, the inhibition in vivo at 25 mg/kg (JeKo-1 [27]) was 67%, the Activity [28] was “Non-Toxic” and the Activity (JeKo-1 [29]) was 0.31 g. It also gave an inhibition in vivo at 20 mg/kg (MV4-11) of 100%, an IC50 (JeKo-1 [30]) of 17 nM and an IC50 (MOLT-4 [31]) of 11 nM. For the same molecule, the Papp B→A at 2 h (in vitro) was 13.5 ×10⁻⁶ cm/s and the inhibition [32] was 47%.
